Data on 2 compounds can be found in patent US7488749B2, “Therapy of diseases of the eye, the inner ear and the central nervous system” (Cevec Pharmaceuticals GmbH, priority 2002, dated 2009).

The subject of one data set is Human RPE cells. Nature of the data set: Formation of lipofuscin (auto-fluorescence) in RPE cells with tyrosinase inhibited by PTU. The format is cell-based. As for the experimental part:
Human retinal pigment epithelium cells were isolated 2 hours post mortem from eyes of organ donors by incubation in 0.2% trypsin solution with 0.5 mM EDTA (if not indicated differently the reagents are from Sigma, Deisenhofen, Germany) for 30 minutes. The cells were centrifuged and cultivated in 24-well-plates (Nunc, Mainz, Germany) in Dulbeccos modified Eagle Medium with 15% foetal calf serum, 50 μg/ml gentamycin and 2.5 μg/ml amphotericin. The cells remain in primary culture (P0) for 3 weeks until confluence. Subsequent passaging was performed by trypsination of the cells in the respective time intervals. For the feeding with membranes of visual cells, cells originating from 3 different donors (passage 3, 6 and 16) were used. […]
The cells in group 1+2 were overlaid with about 2×10^6 outer segments of rods. […] After this, the cells were looked at under the fluorescence microscope (Axiovert, Zeiss, Oberkochem, Germany) with filters specific for the auto-fluorescence of the lipofuscein (excitation 360 nm, emission 540 nm, Feuerbacher Analysentechnik, Tübingen, Germany) and were photographed with a digital camera and saved using Openlab Software (Improvision, UK).

Data set [1] has as its system human amelanotic retinal pigment epithelium cells ARPE-19. Nature of the data set: Survival of retinal pigment epithelium cells after lethal UVA radiation. The format is cell-based. To be noted: without melanin. As for the experimental part:
30.000 human amelanotic retinal pigment epithelium cells ARPE-19 (American Type culture Collections, Manassas, Va., USA) were cultivated in a mixture of DMEM and F12 Medium (PAA Laboratories, Linz, Austria) with 10% foetal calf serum, gentamycin and amphotericin and were incubated with 1 mg/ml melanin from squids (Sepia officinalis, Sigma). After 4 hours, the non-phagocytosed melanin was thoroughly washed away. After 24 hours the artificially pigmented cells were incubated with 100 or 200 μmol ZnCl2 for 2 hours. Three days later, the cells were irradiated using a HRL, 125 W, lamp (Radium, Germany) for 1 hour. The UVA light portion was 18 mW/cm^2 at the surface of the cell culture liquid and was measured using a RM-12 UV radiometer (Dr. Gröbel, UV Elektronik, Ettlingen, Germany). Cells without melanin and zinc treatment with and without irradiation served as controls. After 2 further days, the number of surviving cells was counted in a Thoma-chamber.
In the following table the mean values of surviving cells from 3 independent experiments are indicated. The number of surviving cells after irradiation without melanin and/or zinc treatment was statistically compared with the number of surviving cells with treatment. That is were the p-value results from. […] The number of surviving cells war increased by the factor 7.4 in comparison to untreated cells.

For data set [2] the following is noted: for zinc concentration of the chorioidea-RPE-complex: 24 hours after 40 mg/kg ZnCl2 intraperitoneally. As for the experimental part:
Two albino (Wistar) rats and two pigmented (Long Evans) rats were injected intraperitoneally with 40 mg/kg body weight ZnCl2. After 24 hours the chorioidea-RPE-complex was isolated from retina and sclera. Respective samples from untreated animals served as controls. The samples were weight directly into leak-proof PFA vessels (Savillex) (Microbalance Sartorius MC21S) and cracked by using ultrasound homogenisation for 24 hours at 30° C. with HNO3—H2O2 (suprapur grade reagents; Merck). After careful evaporation, the remains were solved in 2% HNO3 for 5 hours at 50° C. This solution was subsequently transferred to a 10 ml volumetric flask. The final clear solution contained 10 ng rhodamin (Rh)/ml and was refilled with 2% HNO3. The detection of zinc was performed by inductively coupled plasma mass spectrometry (ICP-MS, ELAN 6000 Perkin-Elmer/Sciex) and by using Rh as internal standard and a calibration with chemical reagents having the highest purity grade.

The next data set concerns mRNA for catalase. The data set can be described thus: Catalase mRNA expression in the chorioidea-RPE-complex after zinc injection (real time RT-PCR). The format is in vivo, rat. As for the experimental part: After 6 and 24 hours the chorioidea-RPE-complex was isolated from the retina and sclera. The amount of catalase mRNA expression in the chorioidea-RPE-complex was quantified by real time RT-PCR with the SYBR Green I reaction system using an iCycler (Bio-Rad Laboratories, Hercules, Calif.). PCR primer (catalase: upper primer: TAGCCAGAAGAGAAACCCACAAACT (SEQ ID NO:1) and lower primer: TCCCTCGGTCGCTGAACAAGA (SEQ ID NO:2); GAPDH: upper primer: AACTTTGTGAAGCTCATTTCCTGGTAT (SEQ ID NO:3) and lower primer: CCT TGC TGG GCT GGG TGG T (SEQ ID NO:4)) were selected using the primer analysis software OLIGO®4.1 (National Biosciences, Plymoth, Minn., USA) that the primer specific melting temperature was between 58 and 60° C. […] The quantification data were calculated using the iCycler iQ System Software (Bio-Rad Laboratories, Hercules, Calif.). After subtraction of the PCR base line by the software, the linear logarithmic portion of the fluorescence was plotted versus the number of cycles to determine the cycle number (threshold cycle, CT) at which the threshold fluorescence for catalase and GAPDH as a reference was exceeded. Since the amplification effectivity of target and reference gene was approximately the same (delta CT<0.15) the comparative CT method was used for the quantification of the catalase in comparison GAPDH.

Like-named read-outs stand apart in the source and are kept apart here.

Take `NC(=S)Nc1ccccc1` [PTU, phenylthiourea]: the “auto-fluorescence specific for lipofuscin” value in the data set with Human RPE cells (group 1: 1 mM PTU, fed with membranes of visual cells on 15 successive days) is listed as “intensive, golden auto-fluorescence specific for lipofuscin”; with Human RPE cells (group 3: 1 mM PTU, not fed), “no auto-fluorescence”.

`[Cl-].[Cl-].[Zn+2]` [zinc, ZnCl2]: the “number of surviving cells” value in data set [1] (with irradiation (UVA 18 mW/cm^2, 1 hour), 100 μmol Zn) worked out at 33333 ± 11547; in data set [1] (with irradiation, 200 μmol Zn) it was 41666 ± 16072. In addition, in data set [2] (after injection of zinc, 24 hours), the “final zinc concentration in pigmented rats relative to treated albinos (times higher)” value was determined as 19. The “zinc concentration of the chorioidea-RPE-complex” value was determined as 6.5 µg/g in data set [2] (albino (Wistar) rats) and 125 µg/g in data set [2] (pigmented (Long Evans) rats). In data set [2] (pigmented rats, 24 hours after injection of zinc), the “increase of zinc concentration (factor) versus untreated” value was found to be 1.6. Besides, the “amount of mRNA for catalase” value in the data set with mRNA for catalase (24 hours after 40 mg/kg ZnCl2 i.p.) is “again as high as without zinc injection”. Moreover, the “increase of mRNA for catalase (factor)” value in the data set with mRNA for catalase (six hours after 40 mg/kg ZnCl2 i.p., albino and pigmented rats compared) amounted to 12.
